Activity calls are given as the source filed them. The calls are words filed in the database; no cut-off is given here.
What was measured:
Histamine H4 receptor [1] = target: T1, Histamine H4 receptor (Homo sapiens, UniProt Q9H3N8); assay: Antagonist activity at full length human H4R expressed in HEK293 cells assessed as reversal of forskolin-induced cAMP production by CRE-beta-lactamase reporter gene assay; type: functional, cell-based
[2] = Metabolic stability in rat liver microsomes; type: ADME, Microsome; conditions: read-out: Stability
Histamine H4 receptor [3] = target: T1, Histamine H4 receptor; assay: Displacement of [3H]-histamine from full length human H4R expressed in HEK293 cells; type: cell-based
Liver microsomes = assay: Metabolic stability in human liver microsomes assessed as reactive metabolite generation; type: ADME, Microsome
[4] = Metabolic stability in human liver microsomes; type: ADME, Microsome; conditions: read-out: Stability
Rattus norvegicus [5] = assay: Toxicity in po dosed rat assessed as decrease in reticulocyte counts for 4 days; type: organism-based; conditions: in vivo, 96 h
[6] = Oral bioavailability in rat at 1 mg/kg; type: ADME, organism-based; conditions: in vivo
[7] = Half life in rat at 1 mg/kg, iv and 1 mg/kg, po; type: ADME, organism-based; conditions: in vivo
Rattus norvegicus [8] = assay: Toxicity in po dosed rat assessed as decrease in erythropoiesis for 4 days; type: organism-based, Erythrocyte; conditions: in vivo, 96 h
[9] = Blood clearance in dog at 3 mg/kg, iv; type: ADME, organism-based, Canis lupus familiaris; design: dose 3 mg/kg, route intravenous
Canis familiaris = assay: Toxicity in dog assessed as adverse events dosed orally for 7 days; type: organism-based, Canis lupus familiaris; conditions: in vivo, po, 168 h
[10] = Lipophilicity, log D of the compound; type: physicochemical; conditions: octanol/water
Rattus norvegicus [11] = assay: Toxicity in rat assessed as vacuolation at high dose, po for 7 days; type: organism-based; conditions: in vivo, 168 h
[12] = Volume of distribution in dog blood at 3 mg/kg, iv; type: ADME, organism-based, Canis lupus familiaris; design: dose 3 mg/kg, route intravenous
[13] = Volume of distribution in rat blood at 1 mg/kg, iv and 1 mg/kg, po; type: ADME, organism-based
[14] = Half life in dog at 3 mg/kg, iv; type: ADME, organism-based, Canis lupus familiaris; design: dose 3 mg/kg, route intravenous; conditions: in vivo
Rattus norvegicus [15] = assay: Toxicity in po dosed rat assessed as lymphoid depletion from thymus for 4 days; type: organism-based; conditions: in vivo, 96 h
Rattus norvegicus [16] = assay: Toxicity in po dosed rat assessed as lymphoid depletion from gut for 4 days; type: organism-based; conditions: in vivo, 96 h
[17] = Blood clearance in rat at 1 mg/kg, iv and 1 mg/kg, po; type: ADME, organism-based
Rattus norvegicus [18] = assay: Toxicity in po dosed rat assessed as lymphoid depletion from spleen for 4 days; type: organism-based; conditions: in vivo, 96 h
[19] = Clearance in rat at 1 mg/kg, iv and 1 mg/kg, po; type: ADME, organism-based; conditions: in vivo
Rattus norvegicus [20] = assay: Induction of pro-inflammatory response in rat dosed orally for 4 days; type: functional, organism-based
[21] = Volume of distribution in rat at 1 mg/kg, iv and 1 mg/kg, po; type: ADME, organism-based; conditions: in vivo
Rattus norvegicus [22] = assay: Toxicity in rat assessed as mortality at high dose, po for 7 days; type: organism-based; conditions: in vivo, 168 h

Compound | Ki (Histamine H4 receptor [1]) | microsomal CLint [2] | Ki (Histamine H4 receptor [3]) | Stability (Liver microsomes) | microsomal CLint [4] | bioavailability [6] | half-life [7] | Activity (Rattus norvegicus [5]) | Activity (Rattus norvegicus [8]) | Activity (Canis familiaris) | Activity (Rattus norvegicus [15]) | Activity (Rattus norvegicus [16]) | Activity (Rattus norvegicus [18]) | further results
CN1C[C@@H]2CN(C(=O)c3nc4cc(F)ccc4[nH]3)C[C@@H]2C1 | 39 nM | 40 µL/min/mg | 83 nM | Stable | < 7 µL/min/mg |  |  |  |  |  |  |  |  | 
CN1C[C@@H]2CN(C(=O)c3cc4cc(Cl)ccc4[nH]3)C[C@@H]2C1 | 27 nM | 36 µL/min/mg |  | Unstable | 7 µL/min/mg |  |  |  |  |  |  |  |  | 
CNC1CN(c2cc(N)nc(NCC3CC3)n2)C1 | > 2000 nM | < 8.5 µL/min/mg | 9070 nM |  |  |  |  |  |  |  |  |  |  | Activity (Rattus norvegicus [22]): Toxic

These reach a lower Ki (Histamine H4 receptor [1]). Values come first.

Ki (Histamine H4 receptor [1]) | microsomal CLint [2] | Ki (Histamine H4 receptor [3]) | Stability (Liver microsomes) | microsomal CLint [4] | bioavailability [6] | half-life [7] | Compound | Activity (Rattus norvegicus [5]) | Activity (Rattus norvegicus [8]) | Activity (Canis familiaris) | Activity (Rattus norvegicus [15]) | Activity (Rattus norvegicus [16]) | Activity (Rattus norvegicus [18]) | further results
0.034 nM | < 8.5 µL/min/mg | 1.7 nM |  | < 7 µL/min/mg | 57% | 6.9 h | CNC1CN(c2cc(NCC(C)(C)C)nc(N)n2)C1 | Non-toxic | Non-toxic | Non-toxic | Non-toxic | Non-toxic | Non-toxic | clearance [9]: 30 mL/min/kg; logD [10]: 0.7; Activity (Rattus norvegicus [11]): Toxic; Vd [12]: 48 L/kg; Vd [13]: 49 L/kg; half-life [14]: 19 h; clearance [17]: 77 mL/min/kg
10 nM | 10 µL/min/mg | 10 nM |  | < 7 µL/min/mg | 20% | 12 h | CN1C[C@@H]2CN(C(=N)c3nc4cc(F)c(F)cc4[nH]3)C[C@@H]2C1 | Toxic | Toxic |  | Dose-dependent effect | Dose-dependent effect | Dose-dependent effect | clearance [19]: 31 mL/min/kg; Activity (Rattus norvegicus [20]): Active; Vd [21]: 31 L/kg
1.5 nM | 33 µL/min/mg |  |  |  |  |  | CNC1CN(c2cc(NCCC(C)(C)C)nc(N)n2)C1 | Non-toxic | Non-toxic | Non-toxic | Non-toxic | Non-toxic | Non-toxic | 

Source: ChEMBL document CHEMBL1914379, “Challenges of drug discovery in novel target space. The discovery and evaluation of PF-3893787: a novel histamine H4 receptor antagonist” (Bioorg Med Chem Lett, 2011)
